Measured values published in the kinase profiling compilation of Christmann-Franck et al. (2016).

Legend:
MKNK2 (human) = MKNK2 (human) (UniProt Q9HBH9); assay: SelectScreen, TR FRET
CHEK2 (human) = CHEK2 (human) (UniProt O96017); assay: SelectScreen, TR FRET
MYLK (human) = MYLK (human) (UniProt Q15746); assay: SelectScreen, TR FRET
LRRK2 (human) = LRRK2 (human) (UniProt Q5S007); assay: SelectScreen, TR FRET
DCLK2 (human) = DCLK2 (human) (UniProt Q8N568); assay: SelectScreen, TR FRET
NUAK1 (human) = NUAK1 (human) (UniProt O60285); assay: SelectScreen, TR FRET
AURKA (human) = AURKA (human) (UniProt O14965); assay: SelectScreen, TR FRET
AURKB (human) = AURKB (human) (UniProt Q96GD4); assay: SelectScreen, TR FRET
PLK1 (human) = PLK1 (human) (UniProt P53350); assay: SelectScreen, TR FRET
HIPK2 (human) = HIPK2 (human) (UniProt Q9H2X6); assay: radiometric filter-binding kinase assay
Sequence of HIPK2 (human) (Q9H2X6 whole entry, looked up): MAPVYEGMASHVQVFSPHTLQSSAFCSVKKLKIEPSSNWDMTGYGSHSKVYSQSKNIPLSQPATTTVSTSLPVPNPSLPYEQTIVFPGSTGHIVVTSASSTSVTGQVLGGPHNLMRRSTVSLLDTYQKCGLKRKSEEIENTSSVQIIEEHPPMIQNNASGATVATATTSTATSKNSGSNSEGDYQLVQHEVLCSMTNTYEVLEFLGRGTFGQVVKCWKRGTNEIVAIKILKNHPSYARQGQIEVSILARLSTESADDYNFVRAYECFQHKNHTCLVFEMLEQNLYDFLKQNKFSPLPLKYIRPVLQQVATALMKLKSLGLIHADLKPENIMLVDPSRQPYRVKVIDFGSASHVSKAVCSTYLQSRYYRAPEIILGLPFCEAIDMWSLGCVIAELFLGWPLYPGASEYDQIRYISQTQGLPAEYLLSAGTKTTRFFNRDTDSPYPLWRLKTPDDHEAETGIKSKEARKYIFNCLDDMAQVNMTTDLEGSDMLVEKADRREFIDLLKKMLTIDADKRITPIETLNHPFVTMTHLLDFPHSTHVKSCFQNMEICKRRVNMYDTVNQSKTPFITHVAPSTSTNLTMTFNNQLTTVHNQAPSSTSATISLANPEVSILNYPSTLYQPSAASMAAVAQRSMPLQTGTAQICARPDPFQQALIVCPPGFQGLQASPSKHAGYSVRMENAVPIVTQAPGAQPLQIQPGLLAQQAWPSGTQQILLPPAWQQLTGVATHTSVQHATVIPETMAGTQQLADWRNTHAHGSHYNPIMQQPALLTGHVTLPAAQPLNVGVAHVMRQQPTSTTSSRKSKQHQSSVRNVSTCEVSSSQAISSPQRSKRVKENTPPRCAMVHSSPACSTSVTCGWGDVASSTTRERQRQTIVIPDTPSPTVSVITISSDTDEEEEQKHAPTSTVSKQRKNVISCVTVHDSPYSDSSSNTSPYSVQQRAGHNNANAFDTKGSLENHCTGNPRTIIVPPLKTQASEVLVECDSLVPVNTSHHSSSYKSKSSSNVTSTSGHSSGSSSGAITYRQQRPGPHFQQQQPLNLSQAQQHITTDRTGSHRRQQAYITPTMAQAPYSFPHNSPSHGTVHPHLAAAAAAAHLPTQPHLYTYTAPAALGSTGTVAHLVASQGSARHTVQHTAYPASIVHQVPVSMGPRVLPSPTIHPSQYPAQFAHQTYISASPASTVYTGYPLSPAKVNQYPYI

CDK2 CCNA2 (human) = CDK2 CCNA2 (human) (UniProt P20248+P24941); assay: radiometric filter-binding kinase assay
MAPK8 (human) = MAPK8 (human) (UniProt P45983); assay: radiometric filter-binding kinase assay
Sequence of MAPK8 (human) (P45983 whole entry, looked up): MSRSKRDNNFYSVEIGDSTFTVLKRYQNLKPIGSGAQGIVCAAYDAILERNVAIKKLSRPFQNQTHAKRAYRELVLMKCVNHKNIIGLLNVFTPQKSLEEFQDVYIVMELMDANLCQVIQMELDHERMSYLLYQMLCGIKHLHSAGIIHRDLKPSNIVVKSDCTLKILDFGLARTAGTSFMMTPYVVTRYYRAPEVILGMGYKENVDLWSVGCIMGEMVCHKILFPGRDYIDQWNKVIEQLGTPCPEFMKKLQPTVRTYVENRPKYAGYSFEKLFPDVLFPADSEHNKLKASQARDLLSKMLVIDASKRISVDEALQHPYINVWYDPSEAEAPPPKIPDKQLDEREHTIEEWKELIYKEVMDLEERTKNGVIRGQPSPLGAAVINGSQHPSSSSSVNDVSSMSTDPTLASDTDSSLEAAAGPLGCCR

RPS6KA1 KD1 KD2 (human) = RPS6KA1 KD1 KD2 (human) (UniProt Q15418); assay: radiometric filter-binding kinase assay
MARK4 (human) = MARK4 (human) (UniProt Q96L34); assay: radiometric filter-binding kinase assay
PIM3 (human) = PIM3 (human) (UniProt Q86V86); assay: radiometric filter-binding kinase assay
[1] = system: PAK2 (human), Q13177 [T402E]; assay: radiometric filter-binding kinase assay
Sequence of PAK2 (human), Q13177 [T402E] (Q13177 whole entry T402E, looked up): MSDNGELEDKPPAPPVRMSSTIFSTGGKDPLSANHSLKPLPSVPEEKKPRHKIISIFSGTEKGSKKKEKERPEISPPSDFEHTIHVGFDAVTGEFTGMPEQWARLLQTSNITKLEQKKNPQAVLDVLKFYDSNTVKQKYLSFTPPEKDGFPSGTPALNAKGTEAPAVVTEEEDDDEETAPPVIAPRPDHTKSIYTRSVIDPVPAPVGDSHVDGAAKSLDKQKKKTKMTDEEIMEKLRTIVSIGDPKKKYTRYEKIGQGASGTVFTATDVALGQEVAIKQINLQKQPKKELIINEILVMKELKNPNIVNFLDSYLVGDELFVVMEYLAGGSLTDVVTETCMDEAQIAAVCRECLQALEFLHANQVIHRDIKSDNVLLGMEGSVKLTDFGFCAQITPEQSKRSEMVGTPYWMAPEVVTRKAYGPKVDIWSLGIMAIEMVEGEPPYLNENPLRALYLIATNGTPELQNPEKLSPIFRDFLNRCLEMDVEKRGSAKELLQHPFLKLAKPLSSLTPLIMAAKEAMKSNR

GCK (human) = GCK (human) (UniProt Q12851); assay: radiometric filter-binding kinase assay
Sequence of GCK (human) (Q12851 whole entry, looked up): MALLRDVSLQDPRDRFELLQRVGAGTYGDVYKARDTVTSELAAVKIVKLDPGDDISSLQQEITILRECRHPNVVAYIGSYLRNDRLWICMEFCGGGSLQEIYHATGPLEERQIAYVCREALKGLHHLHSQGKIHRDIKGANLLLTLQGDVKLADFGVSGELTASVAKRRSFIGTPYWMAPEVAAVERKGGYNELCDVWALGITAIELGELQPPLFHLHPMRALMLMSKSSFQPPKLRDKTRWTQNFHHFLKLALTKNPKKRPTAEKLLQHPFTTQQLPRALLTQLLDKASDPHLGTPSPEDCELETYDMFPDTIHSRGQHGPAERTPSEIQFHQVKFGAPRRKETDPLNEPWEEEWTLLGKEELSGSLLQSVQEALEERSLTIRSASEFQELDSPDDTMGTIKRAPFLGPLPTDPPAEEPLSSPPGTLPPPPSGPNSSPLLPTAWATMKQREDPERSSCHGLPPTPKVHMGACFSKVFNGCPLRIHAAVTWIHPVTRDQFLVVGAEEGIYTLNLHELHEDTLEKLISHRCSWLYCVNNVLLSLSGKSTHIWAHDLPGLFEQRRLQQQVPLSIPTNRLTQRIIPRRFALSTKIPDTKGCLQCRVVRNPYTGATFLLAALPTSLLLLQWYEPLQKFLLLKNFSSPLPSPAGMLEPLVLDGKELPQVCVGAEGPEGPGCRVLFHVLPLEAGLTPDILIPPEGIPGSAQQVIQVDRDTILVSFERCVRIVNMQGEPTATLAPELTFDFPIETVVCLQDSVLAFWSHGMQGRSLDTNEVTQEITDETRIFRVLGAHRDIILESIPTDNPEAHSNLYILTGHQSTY

CSK (human) = CSK (human) (UniProt P41240); assay: radiometric filter-binding kinase assay
Sequence of CSK (human) (P41240 whole entry, looked up): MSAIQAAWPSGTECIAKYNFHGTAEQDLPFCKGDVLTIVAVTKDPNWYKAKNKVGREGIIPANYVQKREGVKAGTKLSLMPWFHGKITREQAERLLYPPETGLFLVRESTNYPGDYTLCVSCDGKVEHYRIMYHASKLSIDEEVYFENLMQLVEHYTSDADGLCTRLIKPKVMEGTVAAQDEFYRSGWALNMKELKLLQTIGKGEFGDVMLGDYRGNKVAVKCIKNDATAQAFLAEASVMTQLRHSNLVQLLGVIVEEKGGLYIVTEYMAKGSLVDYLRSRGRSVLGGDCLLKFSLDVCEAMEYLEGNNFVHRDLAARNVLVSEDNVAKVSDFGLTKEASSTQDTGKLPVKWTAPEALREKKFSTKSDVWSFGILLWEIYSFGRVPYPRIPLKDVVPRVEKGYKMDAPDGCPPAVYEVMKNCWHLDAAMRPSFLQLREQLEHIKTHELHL

EEF2K (human) = EEF2K (human) (UniProt O00418); assay: radiometric filter-binding kinase assay
Sequence of EEF2K (human) (O00418 whole entry, looked up): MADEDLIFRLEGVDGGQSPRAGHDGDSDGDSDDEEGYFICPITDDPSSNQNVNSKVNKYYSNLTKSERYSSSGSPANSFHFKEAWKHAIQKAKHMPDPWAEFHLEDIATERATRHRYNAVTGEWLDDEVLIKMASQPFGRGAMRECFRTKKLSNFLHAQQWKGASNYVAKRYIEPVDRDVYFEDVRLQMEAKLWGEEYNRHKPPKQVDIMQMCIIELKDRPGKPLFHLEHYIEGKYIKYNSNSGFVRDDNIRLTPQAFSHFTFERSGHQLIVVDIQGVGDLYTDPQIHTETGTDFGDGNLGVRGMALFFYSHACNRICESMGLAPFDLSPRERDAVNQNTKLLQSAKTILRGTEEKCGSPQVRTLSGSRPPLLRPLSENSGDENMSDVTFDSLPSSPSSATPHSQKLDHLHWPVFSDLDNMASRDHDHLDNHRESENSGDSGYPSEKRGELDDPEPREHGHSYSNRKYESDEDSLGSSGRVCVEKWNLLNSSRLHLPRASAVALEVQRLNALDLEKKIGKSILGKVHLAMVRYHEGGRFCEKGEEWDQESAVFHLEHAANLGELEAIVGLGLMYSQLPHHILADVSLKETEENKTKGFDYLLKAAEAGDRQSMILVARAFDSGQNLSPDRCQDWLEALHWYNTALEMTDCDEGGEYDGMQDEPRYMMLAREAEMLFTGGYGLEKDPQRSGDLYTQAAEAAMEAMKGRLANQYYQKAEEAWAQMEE

MAPK15 (human) = MAPK15 (human) (UniProt Q8TD08); assay: radiometric filter-binding kinase assay
Sequence of MAPK15 (human) (Q8TD08 whole entry, looked up): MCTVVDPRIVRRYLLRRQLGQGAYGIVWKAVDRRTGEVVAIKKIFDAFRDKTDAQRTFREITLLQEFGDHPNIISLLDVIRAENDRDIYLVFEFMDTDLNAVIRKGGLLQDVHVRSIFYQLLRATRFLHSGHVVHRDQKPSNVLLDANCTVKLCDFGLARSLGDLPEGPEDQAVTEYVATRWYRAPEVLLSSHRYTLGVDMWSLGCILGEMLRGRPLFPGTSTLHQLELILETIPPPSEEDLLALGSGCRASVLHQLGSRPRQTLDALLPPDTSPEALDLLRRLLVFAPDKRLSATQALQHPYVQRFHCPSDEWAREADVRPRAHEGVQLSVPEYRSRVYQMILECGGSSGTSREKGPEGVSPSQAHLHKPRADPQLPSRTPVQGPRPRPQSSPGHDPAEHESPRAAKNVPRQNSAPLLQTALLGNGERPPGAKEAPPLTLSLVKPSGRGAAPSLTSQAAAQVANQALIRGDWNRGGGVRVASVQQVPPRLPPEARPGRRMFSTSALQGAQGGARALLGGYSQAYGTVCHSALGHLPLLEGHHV

MAP3K1 (human) = MAP3K1 (human) (UniProt Q13233); assay: radiometric filter-binding kinase assay
MAPK12 (human) = MAPK12 (human) (UniProt P53778); assay: radiometric filter-binding kinase assay
NTRK1 (human) = NTRK1 (human) (UniProt P04629); assay: radiometric filter-binding kinase assay
PIM1 (human) = PIM1 (human) (UniProt P11309); assay: radiometric filter-binding kinase assay
Sequence of PIM1 (human) (P11309 whole entry, looked up): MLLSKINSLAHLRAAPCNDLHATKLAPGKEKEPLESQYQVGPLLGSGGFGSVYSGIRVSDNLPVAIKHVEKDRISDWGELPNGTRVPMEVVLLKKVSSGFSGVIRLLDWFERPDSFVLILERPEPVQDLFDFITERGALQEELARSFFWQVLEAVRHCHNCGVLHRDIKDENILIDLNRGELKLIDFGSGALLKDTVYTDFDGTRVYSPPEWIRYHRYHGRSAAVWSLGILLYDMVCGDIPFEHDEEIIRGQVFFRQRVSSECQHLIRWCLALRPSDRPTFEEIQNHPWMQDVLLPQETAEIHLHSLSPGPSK

SRC (human) = SRC (human) (UniProt P12931); assay: radiometric filter-binding kinase assay
DYRK1A (human) = DYRK1A (human) (UniProt Q13627); assay: radiometric filter-binding kinase assay
NEK2 (human) = NEK2 (human) (UniProt P51955); assay: radiometric filter-binding kinase assay
MAPKAPK2 (human) = MAPKAPK2 (human) (UniProt P49137); assay: radiometric filter-binding kinase assay
HIPK3 (human) = HIPK3 (human) (UniProt Q9H422); assay: radiometric filter-binding kinase assay
INSRR (human) = INSRR (human) (UniProt P14616); assay: radiometric filter-binding kinase assay

COc1cc(C(=O)N2CCC(N3CCN(C)CC3)CC2)ccc1Nc1ncc2c(n1)N(C)c1ccccc1C(=O)N2C
IC50 (MKNK2 (human)): 4.47 µM
IC50 (CHEK2 (human)): 6.51 µM
IC50 (MYLK (human)): 8.21 µM
IC50 (LRRK2 (human)): 0.003 µM
IC50 (DCLK2 (human)): 45 µM
IC50 (NUAK1 (human)): 3.67 µM
IC50 (AURKA (human)): 0.87 µM
IC50 (AURKB (human)): 5.92 µM
IC50 (PLK1 (human)): 983 µM
residual activity (HIPK2 (human); compound 1.0 µM): 76%
residual activity (HIPK2 (human); compound 10.0 µM): 86%
residual activity (CDK2 CCNA2 (human); compound 1.0 µM): 84%
residual activity (CDK2 CCNA2 (human); compound 10.0 µM): 79%
residual activity (MAPK8 (human); compound 1.0 µM): 85%
residual activity (MAPK8 (human); compound 10.0 µM): 96%
residual activity (RPS6KA1 KD1 KD2 (human); compound 1.0 µM): 97%
residual activity (RPS6KA1 KD1 KD2 (human); compound 10.0 µM): 367%
residual activity (MARK4 (human); compound 1.0 µM): 94%
residual activity (MARK4 (human); compound 10.0 µM): 87%
residual activity (PIM3 (human); compound 1.0 µM): 97%
residual activity (PIM3 (human); compound 10.0 µM): 76%
residual activity ([1]; compound 1.0 µM): 97%
residual activity ([1]; compound 10.0 µM): 110%
residual activity (GCK (human); compound 1.0 µM): 93%
residual activity (GCK (human); compound 10.0 µM): 99%
residual activity (CSK (human); compound 1.0 µM): 70%
residual activity (CSK (human); compound 10.0 µM): 80%
residual activity (EEF2K (human); compound 1.0 µM): 75%
residual activity (EEF2K (human); compound 10.0 µM): 82%
residual activity (MAPK15 (human); compound 1.0 µM): 86%
residual activity (MAPK15 (human); compound 10.0 µM): 104%
residual activity (MAP3K1 (human); compound 1.0 µM): 87%
residual activity (MAP3K1 (human); compound 10.0 µM): 83%
residual activity (MAPK12 (human); compound 1.0 µM): 90%
residual activity (MAPK12 (human); compound 10.0 µM): 106%
residual activity (NTRK1 (human); compound 1.0 µM): 79%
residual activity (NTRK1 (human); compound 10.0 µM): 32%
residual activity (PIM1 (human); compound 1.0 µM): 94%
residual activity (PIM1 (human); compound 10.0 µM): 87%
residual activity (SRC (human); compound 1.0 µM): 99%
residual activity (SRC (human); compound 10.0 µM): 99%
residual activity (DYRK1A (human); compound 1.0 µM): 87%
residual activity (DYRK1A (human); compound 10.0 µM): 95%
residual activity (NEK2 (human); compound 1.0 µM): 92%
residual activity (NEK2 (human); compound 10.0 µM): 110%
residual activity (MAPKAPK2 (human); compound 1.0 µM): 86%
residual activity (MAPKAPK2 (human); compound 10.0 µM): 84%
residual activity (HIPK3 (human); compound 1.0 µM): 90%
residual activity (HIPK3 (human); compound 10.0 µM): 102%
residual activity (INSRR (human); compound 1.0 µM): 80%
residual activity (INSRR (human); compound 10.0 µM): 91%
